Results published in patent publication US20250026746A1, “ENHANCERS OF PARTICULATE GUANYLYL CYCLASE RECEPTOR A” (Mayo Foundation for Medical Education and Research, priority 2021, published 2025).
pKd: −log10 of the molar value.

Key:
[1] = biological target: T1, extracellular domain human GC-A recombinant protein (Homo sapiens, UniProt P16066); experiment: Surface plasmon resonance binding to GC-A receptor; conditions: acetate salt, SPR 25° C., 1:1 Langmuir model; for kon: read-out: ka association rate; for koff: read-out: kd dissociation rate
T1 construct: extracellular domain human GC-A recombinant protein; purchased My BioSource, Inc. San Diego, CA
T1 sequence (P16066 33-473 limits assumed): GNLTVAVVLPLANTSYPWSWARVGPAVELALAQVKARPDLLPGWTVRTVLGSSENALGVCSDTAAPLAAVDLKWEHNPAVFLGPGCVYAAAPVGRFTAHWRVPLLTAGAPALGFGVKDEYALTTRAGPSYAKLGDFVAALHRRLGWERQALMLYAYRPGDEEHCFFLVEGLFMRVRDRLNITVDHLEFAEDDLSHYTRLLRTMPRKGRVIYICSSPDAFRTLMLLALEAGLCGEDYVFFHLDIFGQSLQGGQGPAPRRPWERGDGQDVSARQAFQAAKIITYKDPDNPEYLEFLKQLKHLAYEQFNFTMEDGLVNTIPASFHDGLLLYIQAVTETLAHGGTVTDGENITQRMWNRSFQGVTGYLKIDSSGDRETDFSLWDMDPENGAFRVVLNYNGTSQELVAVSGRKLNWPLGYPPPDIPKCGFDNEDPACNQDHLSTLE
Procedure: Surface plasmon resonance (SPR) measurements were performed at 25° C. on a BI-4500 SPR instrument (Biosensing Instrument Inc. Tempe AZ). As per the instructions by the Biosensing instrument manual, 400 mM nickel sulfate in deionized water was linked to the Ni-NTA sensor chip (Biosensing Instrument Inc. Tempe AZ. Then 30 μg/ml of extracellular domain human GC-A recombinant protein (My BioSource, Inc. San Diego, CA), containing 12 histidine residues on the C-terminus, was then immobilized to the nickel sulfate on the Ni-NTA sensor chip. After, the chip was washed with buffer (150 mM NaCl, 50 μM EDTA pH 7.4, 0).1% DMSO), then 100 μL of sequentially diluted Compound 3 acetate salt (0.125, 0.25, 0.5, 1, 2 μM), Compound 1 acetate salt (6.25, 12.5, 25, 50, 100 nM) or Compound 2 acetate salt (0.125, 0.25, 0.5, 1, 2 μM) was injected at the rate of 60 ul/min and allowed to dissociate for 60 seconds. Data was collected as sensorgrams. Binding kinetics were derived from sensorgrams using BI-Data Analysis Program (Biosensing Instrument, Tempe AZ). Affinity analysis of GC-A with Compound 3, Compound 2 and/or Compound 1 interactions were performed using a 1:1 Langmuir binding model. Two series were performed for all studies.

human pGC-A = biological target: T2, human pGC-A (Homo sapiens, UniProt P16066); experiment: Positive allosteric modulation of pGC-A-mediated cGMP production, HTRF competition assay (Example 1); format: cell-based; conditions: free base; for EC50: HEK 293 human pGC-A expressing cells, presence of EC30 ANP (1.3 pM), average of 3 independent experiments, read-out: pEC50 cGMP response (converted)
T2 construct: expressed in transfected cells; host or cells: HEK293
T2 sequence (P16066 33-1061): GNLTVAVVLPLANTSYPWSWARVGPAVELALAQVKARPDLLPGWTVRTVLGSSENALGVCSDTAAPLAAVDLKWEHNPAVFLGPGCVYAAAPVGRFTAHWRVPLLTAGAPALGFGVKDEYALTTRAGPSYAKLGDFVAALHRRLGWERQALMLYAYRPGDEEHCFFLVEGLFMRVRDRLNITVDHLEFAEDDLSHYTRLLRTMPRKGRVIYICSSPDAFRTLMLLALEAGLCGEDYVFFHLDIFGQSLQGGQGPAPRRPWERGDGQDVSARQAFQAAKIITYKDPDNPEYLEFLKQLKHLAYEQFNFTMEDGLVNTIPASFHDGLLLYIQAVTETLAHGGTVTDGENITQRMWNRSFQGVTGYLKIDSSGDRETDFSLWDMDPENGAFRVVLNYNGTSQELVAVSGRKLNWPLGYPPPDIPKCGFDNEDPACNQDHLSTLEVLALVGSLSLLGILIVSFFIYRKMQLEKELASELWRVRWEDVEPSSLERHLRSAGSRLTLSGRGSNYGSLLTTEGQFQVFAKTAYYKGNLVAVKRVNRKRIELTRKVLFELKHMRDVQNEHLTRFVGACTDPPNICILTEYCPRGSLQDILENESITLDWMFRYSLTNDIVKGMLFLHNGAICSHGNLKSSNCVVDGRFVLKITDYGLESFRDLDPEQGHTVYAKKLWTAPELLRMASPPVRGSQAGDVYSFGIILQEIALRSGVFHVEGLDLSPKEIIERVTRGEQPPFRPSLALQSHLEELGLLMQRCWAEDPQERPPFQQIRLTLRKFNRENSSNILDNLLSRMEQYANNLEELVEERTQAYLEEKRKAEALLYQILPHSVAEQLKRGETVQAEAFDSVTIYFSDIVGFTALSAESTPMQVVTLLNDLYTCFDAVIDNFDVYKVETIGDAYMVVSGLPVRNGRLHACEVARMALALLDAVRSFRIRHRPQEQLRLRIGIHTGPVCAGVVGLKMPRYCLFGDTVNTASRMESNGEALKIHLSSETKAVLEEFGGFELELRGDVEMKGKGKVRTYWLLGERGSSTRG
T2 sequence (P01160 124-151 partner limits assumed): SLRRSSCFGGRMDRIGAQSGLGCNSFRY
Procedure: Test compounds at 10 mM DMSO stock concentration were added to 384 well assay plates using Tecan dispenser starting at 40 μM concentration and diluted 2-fold for 10-point concentration-response curves. Wells were backfilled with DMSO such that the final concentration of DMSO in all wells was maintained at 0.3% DMSO. Positive allosteric modulation (presence of EC30 concentration of ANP at 1.3 pM) of pGC-A-mediated activation of cGMP production was measured in human pGC-A overexpressing HEK293 cells by homogenous time-resolved florescence (HTRF) competition assay using cGMP CisBio detection kit (Cat #: 62GM2PEC). Enantiomerically pure(S)-N-(4,6-difluorobenzo[d]thiazol-2-yl)-1-(2-(dimethylamino)ethyl) piperidine-3-carboxamide and (R)-N-(4,6-difluorobenzo[d]thiazol-2-yl)-1-(2-(dimethylamino)ethyl) piperidine-3-carboxamide were individually synthesized from enantiomerically pure starting materials (R- and S-nipecotic acid).

pKd [1]	kon [1] [M⁻¹ s⁻¹]	koff [1] [s⁻¹]	EC50 (human pGC-A) [nM]	fold more potent than the R-enantiomer (compound 2) (human pGC-A; presence of ANP) [fold]	SMILES
6.75	113000	0.02	–	–	CN(C)CCN1CCCC(C(=O)Nc2nc3c(F)cc(F)cc3s2)C1 (racemic) [Compound 3, N-(4,6-difluorobenzo[d]thiazol-2-yl)-1-(2-(dimethylamino)ethyl) piperidine-3-carboxamide]
7.92	1.09e+06	0.014	398	3.5	CN(C)CCN1CCC[C@H](C(=O)Nc2nc3c(F)cc(F)cc3s2)C1 [Compound 1, (S)-N-(4,6-difluorobenzo[d]thiazol-2-yl)-1-(2-(dimethylamino)ethyl) piperidine-3-carboxamide]
6.92	430000	0.052	1260	–	CN(C)CCN1CCC[C@@H](C(=O)Nc2nc3c(F)cc(F)cc3s2)C1 [Compound 2, (R)-N-(4,6-difluorobenzo[d]thiazol-2-yl)-1-(2-(dimethylamino)ethyl) piperidine-3-carboxamide]
